Data as given in patent publication US20220213055A1, “SUBSTITUTED (PIPERIDIN-1-YL)ARYL ANALOGUES FOR MODULATING AVIL ACTIVITY” (University of Virginia Patent Foundation, priority 2019, published 2022).
Like-named read-outs stand apart in the source and are kept apart here.

Key:
Assay type in all cases: cell-based
[1] = tested on: Glioblastoma cell line U87 cells; test: MTT cell viability assay, glioblastoma cells; settings: for IC50: Homo sapiens, U-87 MG, 72 h, U87 glioblastoma cells, MTT after three days
Method: (§1) Different concentration of compounds were added to the cells. Three days later, a MTT assay (Sigma) was performed to monitor cell viability.
(§2) In this example, samples of glioblastoma cells (U87) and astrocyte cells (non-cancer control) were exposed various disclosed compounds to determine the effectiveness of the compounds for inhibiting cell growth.

[2] = tested on: Immortalized human astrocytes; test: MTT cell viability assay, astrocytes (non-cancer control); settings: for IC50: immortalized human astrocytes, MTT after three days
Method: as §1, §2

[3] = biological target: T1, AVIL protein binding to actin (Homo sapiens, UniProt O75366); test: Immunoprecipitation (MYC antibody) and Western blot (β-actin antibody) in 293T cells transfected with MYC tagged AVIL; settings: IC50 dose, 24 hrs, FIGS. 2A and 2B
T1 construct: expressed in transfected cells; host or cells: 293T cells
T1 sequence (O75366 1-819): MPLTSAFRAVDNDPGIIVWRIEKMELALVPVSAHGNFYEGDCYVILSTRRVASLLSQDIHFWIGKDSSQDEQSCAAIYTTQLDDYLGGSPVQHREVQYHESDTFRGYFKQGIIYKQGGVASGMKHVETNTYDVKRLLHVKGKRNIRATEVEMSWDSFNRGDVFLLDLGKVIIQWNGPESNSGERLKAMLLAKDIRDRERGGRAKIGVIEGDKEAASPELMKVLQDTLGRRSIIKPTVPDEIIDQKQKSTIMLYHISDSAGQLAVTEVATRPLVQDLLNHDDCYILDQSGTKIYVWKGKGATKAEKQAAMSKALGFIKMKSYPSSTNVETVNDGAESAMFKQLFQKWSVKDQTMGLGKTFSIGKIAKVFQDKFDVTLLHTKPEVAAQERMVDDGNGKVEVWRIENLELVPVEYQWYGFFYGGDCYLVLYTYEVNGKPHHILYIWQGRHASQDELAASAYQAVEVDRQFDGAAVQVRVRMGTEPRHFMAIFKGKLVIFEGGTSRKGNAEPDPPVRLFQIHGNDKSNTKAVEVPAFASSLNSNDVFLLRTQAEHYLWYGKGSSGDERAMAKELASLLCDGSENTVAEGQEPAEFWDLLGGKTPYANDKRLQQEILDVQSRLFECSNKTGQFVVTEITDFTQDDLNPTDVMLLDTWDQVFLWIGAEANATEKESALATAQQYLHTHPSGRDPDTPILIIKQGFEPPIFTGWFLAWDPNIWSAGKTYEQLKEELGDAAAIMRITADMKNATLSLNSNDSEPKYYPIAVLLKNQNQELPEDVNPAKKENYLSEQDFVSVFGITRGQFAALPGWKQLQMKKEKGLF
Method: 293T cells were first transfected with MYC tagged AVIL. After 24 hrs, the cells were treated with the IC50 dose of the five compounds for 24 hrs. Immunoprecipitation was performed with MYC antibody, and Western blot was performed with β-actin antibody.
293T cells were first transfected with MYC tagged AVIL as follows: transfect pQCXIH-myc-AVIL plasmid in 6 well plate of 293T for 48 hrs. 200 ul opti-medium+7 ul GeneCellin (Polyplus transfection Co.)+4 ug plasmids in each well. Transfected AVIL cells were treated with the IC50 dose of the test compounds for 24 hrs. Protein extract was then prepared on ice by adding 1 ml IP lysis buffer+protease inhibitor+cocktail+PMSF, and let stand on ice for 30 min. Cells were then scraped into EP tubes and sonicated continuously for 5 sec with power setting 3. Tubes were then centrifuged in 4° C. at 13000 rpm for 20 min, and the upper aqueous phase was then transferred to pre-chilled tubes. Protein concentration was then determined using Bio-Rad protein assay. Preclear cell extracts were treated with 50 ul ProteinG/Sepharose per my lysate for 1 hr. Then 500 ug precleared cell extracts were taken and adjusted to 500 ul with lysis buffer for 2 ug myc antibody or IgG control and incubated at 4° C. overnight. Then, 25 ul ProteinG/Sepharose beads were added and incubated at 4° C. overnight. Beads were then washed four times with 1 ml IP wash buffer for 3 min, and spun at 1000 rpm to pellet beads. All wash buffer was removed with pipette, and 20 ul 2×SDS loading buffer was added and then boiled at 95° C. for 10 min to denature. This was centrifuged at 12000 rpm for 30 sec., and the supernatant was then transferred to a fresh tube and load for SDS-PAGE.
Western blot was performed with R-actin antibody. To measure protein levels, cell lysates were resolved by denaturing gel electrophoresis, before electrotransfer to a Protran nitrocellulose membrane. The membrane was subjected to western blot analysis with antibodies against the proteins of interest. The following antibodies and dilutions were used: rabbit anti-AVIL (1:2000; Sigma SAB2100191).

LIN28B = LIN28B gene expression by qRT-PCR in U87 cells; settings: IC50 concentration, relative to GAPDH, FIG. 3
Method: U87 cells were treated at the IC50 concentration of the five test compounds. Cells were harvested. RNA was extracted using TRIzol reagent (Invitrogen) and quantified with Nanodrop (Thermo). cDNA was generated by AMV-RT kit (NEB), and a random hexamer primer. Real-time qPCR was carried out on the StepOne Plus system from Applied Biosystems using SYBR mix (Thermo). LIN28B expression was measured by qRT-PCR and is represented relative to GAPDH levels. […] The following primers were used for […] and GAPDH amplifications: […]

SMILES	IC50 [1]	IC50 ([1]; value in nM)	concentration at which most if not all of the U87 cells were wiped out ([1]; FIG. 1 cell survival curves, U87)	effect on astrocytes ([2]; FIG. 1 cell survival curves, astrocytes, varied doses)	IC50 ([2]; Homo sapiens, Astrocyte, 72 h)	IC50 ([2]; read-out: IC50 (astrocyte))	disruption of AVIL protein binding to actin [3]	down-regulation of LIN28B gene expression (LIN28B)
Cc1nc(N)nc(N2CCCC(CO)(CCCc3ccccc3)C2)c1C (stereo not shown) [PLH1252, (1-(2-Amino-5,6-dimethylpyrimidin-4-yl)-3-(3-phenylpropyl)piperidin-3-yl)methanol]	~1000 nM	~600 nM	less than 1 μM	no significant effect	45 µM	~80 µM	disruption of AVIL protein binding to actin	down-regulation of LIN28B gene expression
c1ccc(COCC2CCCN(c3ncnc4ccccc34)C2)cc1 (stereo not shown) [PLH2069, 4-(3-((Benzyloxy)methyl)piperidin-1-yl)quinazoline]							disruption of AVIL protein binding to actin	down-regulation of LIN28B gene expression

Continued, in another order:

IC50 [1]	IC50 ([1]; value in nM)	SMILES	concentration at which most if not all of the U87 cells were wiped out ([1]; FIG. 1 cell survival curves, U87)	effect on astrocytes ([2]; FIG. 1 cell survival curves, astrocytes, varied doses)	IC50 ([2]; Homo sapiens, Astrocyte, 72 h)	IC50 ([2]; read-out: IC50 (astrocyte))	disruption of AVIL protein binding to actin [3]	down-regulation of LIN28B gene expression (LIN28B)
< 1000 nM	500 nM	OCC1(CCCc2ccccc2)CCCN(c2ncnc3ccccc23)C1 (stereo not shown) [PLH1295, (3-(3-Phenylpropyl)-1-(quinazolin-4-yl)piperidin-3-yl)methanol]			22 µM	30 µM	disruption of AVIL protein binding to actin	down-regulation of LIN28B gene expression
< 2500 nM		Cc1ncnc(N2CCCC(CO)(CCCc3ccccc3)C2)c1C (stereo not shown) [PLH2056, (1-(5,6-Dimethylpyrimidin-4-yl)-3-(3-phenylpropyl)piperidin-3-yl)methanol]			~80 µM		disruption of AVIL protein binding to actin	down-regulation of LIN28B gene expression
~2000 nM		OCC1(CCCc2ccccc2)CCCN(c2ncnc3cc(Cl)ccc23)C1 (stereo not shown) [PLH2074, (1-(7-Chloroquinazolin-4-yl)-3-(3-phenylpropyl)piperidin-3-yl)methanol]			~15 µM			
